According to patent publication US20100120700A1, “METHODS AND COMPOSITIONS FOR TREATING CERVICAL CANCER” (priority 2000, published 2010):
Several values for one entry are separate records, joined by “and”; a condition that tells them apart may be missing. Equal values may be shown once.

How the values were obtained:
Experiment in all cases: G assay PDZ-PL binding
ERBIN domain 1 = biological target: T1, ERBIN domain 1 (Homo sapiens, UniProt Q96RT1); conditions: peptide 10 uM, protein 5
T1 construct: made in house; host or cells: E. coli (DH5alpha, BL21 or JM109)
T1 sequence (Q96RT1 1313-1412): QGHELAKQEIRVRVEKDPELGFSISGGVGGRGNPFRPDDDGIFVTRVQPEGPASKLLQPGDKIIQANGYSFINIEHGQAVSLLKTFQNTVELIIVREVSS
How it was run: (§1)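 Plate ELISA: anti-GST antibody coat, BSA block, then GST/PDZ fusion (GST alone as negative control). Biotinylated PL peptide 20 uM (10 uM in G′ variant) added, 10 min 4 °C plus 20 min 25 °C; streptavidin-HRP, TMB, absorbance 450 nm.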

KIAA0380 #25.6 domain 1 = biological target: T2, KIAA0380 #25.6 domain 1 (Homo sapiens, UniProt O15085); conditions: vs GST only well, peptide 10 uM, protein 5
T2 construct: made in house; host or cells: E. coli (DH5alpha, BL21 or JM109), vector pGEX-3X
T2 sequence (O15085 45-123): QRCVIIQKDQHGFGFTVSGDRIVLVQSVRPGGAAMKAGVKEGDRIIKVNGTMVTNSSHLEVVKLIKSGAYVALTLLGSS
How it was run: as §1

Densin domain 1 = biological target: T3, Densin domain 1 (Homo sapiens, UniProt Q96NW7); conditions: peptide 10 uM, protein 5
T3 construct: made in house; host or cells: E. coli (DH5alpha or BL-21)
T3 sequence (Q96NW7 1429-1537): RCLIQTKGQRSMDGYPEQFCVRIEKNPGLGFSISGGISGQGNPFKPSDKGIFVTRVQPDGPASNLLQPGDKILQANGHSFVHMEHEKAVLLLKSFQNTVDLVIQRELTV
How it was run: as §1

HTRA 3 domain 1 = biological target: T4, HTRA 3 domain 1 (Homo sapiens, UniProt P83110); conditions: peptide 10 uM, protein 5
T4 construct: made in house; host or cells: E. coli (DH5alpha or BL-21)
T4 sequence (P83110 with tags, fused parts or gaps): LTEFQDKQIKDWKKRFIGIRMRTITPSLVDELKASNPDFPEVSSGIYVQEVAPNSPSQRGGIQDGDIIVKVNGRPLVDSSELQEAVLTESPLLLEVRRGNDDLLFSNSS
How it was run: as §1

LIM-RIL domain 1 = biological target: T5, LIM-RIL domain 1 (Homo sapiens, UniProt P50479, A39S/DEL20-20); conditions: peptide 10 uM, protein 5
T5 construct: made in house; host or cells: E. coli (DH5alpha or BL-21)
T5 sequence (P50479 with tags, fused parts or gaps DEL20-20/A39S): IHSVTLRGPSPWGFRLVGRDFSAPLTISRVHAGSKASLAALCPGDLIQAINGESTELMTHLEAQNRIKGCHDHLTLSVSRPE
How it was run: as §1

Shank 3 domain 1 = biological target: T6, Shank 3 domain 1 (Homo sapiens, UniProt Q9BYB0); conditions: peptide 10 uM, protein 5
T6 construct: made in house; host or cells: E. coli (DH5alpha or BL-21)
T6 sequence (Q9BYB0 638-747): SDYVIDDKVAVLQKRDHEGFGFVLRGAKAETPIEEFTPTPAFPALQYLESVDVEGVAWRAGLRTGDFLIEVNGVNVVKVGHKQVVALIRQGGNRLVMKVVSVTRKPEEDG
How it was run: as §1

FLJ11215 domain 1 = biological target: T7, FLJ11215 domain 1 (Homo sapiens, UniProt Q9NUP9); conditions: peptide 10 uM, protein 5
T7 construct: made in house; host or cells: E. coli (DH5alpha, BL21 or JM109), vector pGEX-3X
T7 sequence (Q9NUP9 86-182): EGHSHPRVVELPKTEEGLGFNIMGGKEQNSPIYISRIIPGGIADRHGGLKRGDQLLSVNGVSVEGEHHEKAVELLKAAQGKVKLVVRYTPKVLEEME
How it was run: as §1

MUPP1 domain 7 = biological target: T8, MUPP1 domain 7 (Homo sapiens, UniProt O75970); conditions: peptide 10 uM, protein 5
T8 construct: made in house; host or cells: E. coli (DH5alpha, BL21 or JM109)
T8 sequence (O75970 with tags, fused parts or gaps): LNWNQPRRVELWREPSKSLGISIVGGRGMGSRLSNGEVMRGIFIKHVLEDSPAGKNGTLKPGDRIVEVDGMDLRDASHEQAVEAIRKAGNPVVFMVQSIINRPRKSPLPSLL
How it was run: as §1

[1] = biological target: T9, Syntrophin gamma 2 domain 1 (Homo sapiens, UniProt Q9NY99); conditions: peptide 10 uM, protein 5
T9 construct: made in house; host or cells: E. coli (DH5alpha, BL21 or JM109), vector pGEX-3X
T9 sequence (Q9NY99 65-163): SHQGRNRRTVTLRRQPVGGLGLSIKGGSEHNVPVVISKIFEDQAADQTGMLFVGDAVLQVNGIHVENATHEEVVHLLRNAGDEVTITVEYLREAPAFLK
How it was run: as §1

KIAA1095 domain 1 = biological target: T10, KIAA1095 domain 1 (Homo sapiens, UniProt Q9UPQ7); conditions: peptide 10 uM, protein 5
T10 construct: made in house; host or cells: E. coli (DH5alpha, BL21 or JM109)
T10 sequence (Q9UPQ7 with tags, fused parts or gaps): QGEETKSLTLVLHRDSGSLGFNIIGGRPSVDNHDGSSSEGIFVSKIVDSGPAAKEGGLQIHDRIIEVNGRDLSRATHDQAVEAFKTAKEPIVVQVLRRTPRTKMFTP
How it was run: as §1

DLG2 domain 1 = biological target: T11, DLG2 domain 1 (Homo sapiens, UniProt Q15700); conditions: peptide 10 uM, protein 5
T11 construct: made in house; host or cells: E. coli (DH5alpha, BL21 or JM109), vector pGEX-3X
How it was run: as §1

MAGI 1 domain 4 = biological target: T12, MAGI 1 domain 4 (Homo sapiens, UniProt Q96QZ7); conditions: peptide 10 uM, protein 5
T12 construct: made in house; host or cells: E. coli (DH5alpha, BL21 or JM109)
T12 sequence (Q96QZ7 with tags, fused parts or gaps): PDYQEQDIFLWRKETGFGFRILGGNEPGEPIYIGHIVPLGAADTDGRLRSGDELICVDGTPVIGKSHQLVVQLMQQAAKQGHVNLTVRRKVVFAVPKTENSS
How it was run: as §1

KIAA1634 domain 1 = biological target: T13, KIAA1634 domain 1 (Homo sapiens, UniProt Q5TCQ9); conditions: peptide 10 uM, protein 5
T13 construct: made in house; host or cells: E. coli (DH5alpha, BL21 or JM109)
T13 sequence (Q5TCQ9 401-502): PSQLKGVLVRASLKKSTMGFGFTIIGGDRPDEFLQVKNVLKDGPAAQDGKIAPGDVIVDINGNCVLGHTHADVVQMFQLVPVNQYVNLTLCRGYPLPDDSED
How it was run: as §1

KIAA1526 #119.1 domain 1 = biological target: T14, KIAA1526 #119.1 domain 1 (Homo sapiens, UniProt Q9P202); conditions: peptide 10 uM, protein 5
T14 construct: made in house; host or cells: E. coli (DH5alpha or BL-21)
T14 sequence (Q9P202 130-232): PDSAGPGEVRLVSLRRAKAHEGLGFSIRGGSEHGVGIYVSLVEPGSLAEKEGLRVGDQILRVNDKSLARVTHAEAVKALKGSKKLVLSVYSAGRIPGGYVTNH
How it was run: as §1

20 mer peptide corresponding to the C-terminus of HPV16 E6 (PDZ ligand), biotinylated in binding assays; ends SSRTRRETQL (SEQ ID NO: 13) [HPV E6 #16]
Ave OD (ERBIN domain 1; A450 nm): 0.36 and 0.342
OD S/N (ERBIN domain 1; vs GST only well): 1.82 and 1.30
OD S/N (KIAA0380 #25.6 domain 1): 1.95 and 3.06
Ave OD (Densin domain 1; A450 nm): 0.4205 and 0.3505
OD S/N (Densin domain 1; vs GST only well): 1.96 and 1.82
Ave OD (HTRA 3 domain 1; A450 nm): 0.4135
OD S/N (HTRA 3 domain 1; vs GST only well): 1.34
Ave OD (LIM-RIL domain 1; A450 nm): 0.449
OD S/N (LIM-RIL domain 1; vs GST only well): 1.60
Ave OD (Shank 3 domain 1; A450 nm): 0.396
OD S/N (Shank 3 domain 1; vs GST only well): 2.61
Ave OD (FLJ11215 domain 1; A450 nm): 0.449 and 0.666
OD S/N (FLJ11215 domain 1; vs GST only well): 2.77 and 2.74
Ave OD (MUPP1 domain 7; A450 nm): 0.498
OD S/N (MUPP1 domain 7; vs GST only well): 1.61
Ave OD ([1]; A450 nm): 0.469 and 0.7725
OD S/N ([1]; vs GST only well): 2.76 and 3.13
Ave OD (KIAA1095 domain 1; A450 nm): 2.7045 and 1.711
OD S/N (KIAA1095 domain 1; vs GST only well): 13.13 and 7.96
Ave OD (DLG2 domain 1; A450 nm): 0.793
OD S/N (DLG2 domain 1; vs GST only well): 3.59
Ave OD (MAGI 1 domain 4; A450 nm): 0.395 and 0.496
OD S/N (MAGI 1 domain 4; vs GST only well): 1.20 and 1.58
Ave OD (KIAA1634 domain 1; A450 nm): 3.465 and 3.336
OD S/N (KIAA1634 domain 1; vs GST only well): 19.04 and 19.45
Ave OD (KIAA1526 #119.1 domain 1; A450 nm): 0.425
OD S/N (KIAA1526 #119.1 domain 1; vs GST only well): 1.38
